Assay results as given in US6376497B1, “Antifungal azole derivatives having a fluorinated vinyl group and process for preparing same” (Korea Research Institute of Chemical Technology, priority 1999, dated 2002).

How the values were obtained:
Experiment in all cases: In vitro antifungal activity, microbroth dilution MIC
Type in all cases: cell-based
Conditions in all cases: RPMI-1640, 35° C., 4 to 48 hours, no growth observed
[1] = test system: Candida pseudotropicalis K. 11658
Method in brief: (§1)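 Broth microdilution adapted from NCCLS M27, in RPMI-1640 with 0.165 M MOPS, pH 7.0. Yeast or mould inoculum at 2×10^3 CFU/ml was mixed 1:1 with DMSO-derived compound solutions (200 to 0.10 μg/ml before mixing) and incubated at 35 °C for 4 to 48 h. MIC was the concentration showing no growth.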

[2] = test system: Cryptococcus neoformans IFM. 40092
Method in brief: as §1

[3] = test system: Candida parapsitosis A. 7330
Method in brief: as §1

[4] = test system: Cryptococcus neoformans A. 34144
Method in brief: as §1

Candida krusei K. 11655 = test system: Candida krusei K. 11655
Method in brief: as §1

[5] = test system: Trichophyton mentagrophytes B. 32663
Method in brief: as §1

[6] = test system: Trichophyton mentagrophytes A. 9129
Method in brief: as §1

[7] = test system: Candida albicans A. 10231
Method in brief: as §1

[8] = test system: Aspergillus niger A. 16404
Method in brief: as §1

[9] = test system: Cryptococcus neoformans B. 42419
Method in brief: as §1

[10] = test system: Aspergillus furnigatus B. 19119
Method in brief: as §1

Candida albicans C1-2 = test system: Candida albicans C1-2
Method in brief: as §1

[11] = test system: Torulopsis glabrata B. 16205
Method in brief: as §1

[12] = test system: Candida tropicalis A. 13803
Method in brief: as §1

[13] = test system: Candida albicans IFO. 1385
Method in brief: as §1

Minimal inhibitory concentration(MIC), C. pseudotropicalis K. 11658 [1] | Minimal inhibitory concentration(MIC), Cry. neoformans IFM. 40092 [2] | Minimal inhibitory concentration(MIC), C. parapsitosis A. 7330 [3] | Minimal inhibitory concentration(MIC), Cry. neoformans A. 34144 [4] | Minimal inhibitory concentration(MIC), C. krusei K. 11655 (Candida krusei K. 11655) | Minimal inhibitory concentration(MIC), T. mentagrophytes B. 32663 [5] | Minimal inhibitory concentration(MIC), T. mentagrophytes A. 9129 [6] | Minimal inhibitory concentration(MIC), C. albicans A. 10231 [7] | Minimal inhibitory concentration(MIC), A. niger A. 16404 [8] | Minimal inhibitory concentration(MIC), Cry. neoformans B. 42419 [9] | Minimal inhibitory concentration(MIC), A furnigatus B. 19119 [10] | Minimal inhibitory concentration(MIC), C. albicans C1-2 (Candida albicans C1-2) | Minimal inhibitory concentration(MIC), T. glabrata B. 16205 [11] | Minimal inhibitory concentration(MIC), C. tropicalis A. 13803 [12] | Minimal inhibitory concentration(MIC), C. albicans IFO. 1385 [13] | SMILES
25.0 µg/mL | 0.20 µg/mL | 100 µg/mL | 1.56 µg/mL | 100 µg/mL | 3.13 µg/mL | 6.25 µg/mL | 100 µg/mL | >100 µg/mL | 1.56 µg/mL | >100 µg/mL | 100 µg/mL | 50.0 µg/mL | >100 µg/mL | 3.13 µg/mL | COc1ccc(C(=C(F)Oc2ccc(OCC3COC(Cn4cncn4)(c4ccc(Cl)cc4Cl)O3)cc2)C(F)(F)F)cc1 (mixture of isomers) [Ex. 121]
6.25 µg/mL | 0.20 µg/mL | 6.25 µg/mL | 0.78 µg/mL | 12.5 µg/mL | 3.13 µg/mL | 6.25 µg/mL | 12.5 µg/mL | 100 µg/mL | 1.56 µg/mL | 12.5 µg/mL | 6.25 µg/mL | 12.5 µg/mL | 25.0 µg/mL | 0.78 µg/mL | FC(Oc1ccc(OCC2COC(Cn3cncn3)(c3ccc(Cl)cc3Cl)O2)cc1)=C(c1ccc(Cl)cc1)C(F)(F)F (mixture of isomers) [Ex. 122]
25.0 µg/mL | 0.39 µg/mL | >100 µg/mL | 1.56 µg/mL | >100 µg/mL | 3.13 µg/mL | 6.25 µg/mL | 25.0 µg/mL | >100 µg/mL | 1.56 µg/mL | >100 µg/mL | 12.5 µg/mL | 50.0 µg/mL | 100 µg/mL | 1.56 µg/mL | FC(Oc1ccc(OCC2COC(Cn3cncn3)(c3ccc(Cl)cc3Cl)O2)cc1)=C(c1ccc(F)cc1)C(F)(F)F (mixture of isomers) [Ex. 123]

Second part, the compound before the results:

SMILES | Minimal inhibitory concentration(MIC), C. pseudotropicalis K. 11658 [1] | Minimal inhibitory concentration(MIC), Cry. neoformans IFM. 40092 [2] | Minimal inhibitory concentration(MIC), C. parapsitosis A. 7330 [3] | Minimal inhibitory concentration(MIC), Cry. neoformans A. 34144 [4] | Minimal inhibitory concentration(MIC), C. krusei K. 11655 (Candida krusei K. 11655) | Minimal inhibitory concentration(MIC), T. mentagrophytes B. 32663 [5] | Minimal inhibitory concentration(MIC), T. mentagrophytes A. 9129 [6] | Minimal inhibitory concentration(MIC), C. albicans A. 10231 [7] | Minimal inhibitory concentration(MIC), A. niger A. 16404 [8] | Minimal inhibitory concentration(MIC), Cry. neoformans B. 42419 [9] | Minimal inhibitory concentration(MIC), A furnigatus B. 19119 [10] | Minimal inhibitory concentration(MIC), C. albicans C1-2 (Candida albicans C1-2) | Minimal inhibitory concentration(MIC), T. glabrata B. 16205 [11] | Minimal inhibitory concentration(MIC), C. tropicalis A. 13803 [12] | Minimal inhibitory concentration(MIC), C. albicans IFO. 1385 [13]
FC(Oc1ccc(OCC2COC(Cn3ccnc3)(c3ccc(F)cc3F)O2)cc1)=C(c1cccc(F)c1)C(F)(F)F (mixture of isomers) [Ex. 115] | >100 µg/mL | 0.39 µg/mL | >100 µg/mL | 1.56 µg/mL | >100 µg/mL | 3.13 µg/mL | 6.25 µg/mL | 25.0 µg/mL | >100 µg/mL | 3.13 µg/mL | >100 µg/mL | 25.0 µg/mL | 50.0 µg/mL | 100 µg/mL | 1.56 µg/mL
FC(Oc1ccc(OCC2COC(Cn3ccnc3)(c3ccc(F)cc3F)O2)cc1)=C(c1cc(Cl)cc(Cl)c1)C(F)(F)F (mixture of isomers) [Ex. 116] | 25.0 µg/mL | 0.20 µg/mL | 100 µg/mL | 1.56 µg/mL | 100 µg/mL | 3.13 µg/mL | 6.25 µg/mL | 100 µg/mL | >100 µg/mL | 1.56 µg/mL | >100 µg/mL | 100 µg/mL | 50.0 µg/mL | >100 µg/mL | 3.13 µg/mL
COc1ccc(C=C(F)Oc2ccc(OCC3COC(Cn4cncn4)(c4ccc(Cl)cc4Cl)O3)cc2)cc1 (mixture of isomers) [Ex. 118] | 25.0 µg/mL | 0.39 µg/mL | >100 µg/mL | 1.56 µg/mL | >100 µg/mL | 3.13 µg/mL | 6.25 µg/mL | 25.0 µg/mL | >100 µg/mL | 1.56 µg/mL | >100 µg/mL | 12.5 µg/mL | 50.0 µg/mL | 100 µg/mL | 1.56 µg/mL
FC(Oc1ccc(OCC2COC(Cn3cncn3)(c3ccc(Cl)cc3Cl)O2)cc1)=C(c1ccccc1)C(F)(F)F (mixture of isomers) [Ex. 119] | >100 µg/mL | 0.39 µg/mL | >100 µg/mL | 1.56 µg/mL | >100 µg/mL | 3.13 µg/mL | 6.25 µg/mL | 50.0 µg/mL | >100 µg/mL | 1.56 µg/mL | >100 µg/mL | 25.0 µg/mL | 50.0 µg/mL | >100 µg/mL | 1.56 µg/mL
Cc1ccc(C(=C(F)Oc2ccc(OCC3COC(Cn4cncn4)(c4ccc(Cl)cc4Cl)O3)cc2)C(F)(F)F)cc1 (mixture of isomers) [Ex. 120] | >100 µg/mL | 0.39 µg/mL | >100 µg/mL | 1.56 µg/mL | >100 µg/mL | 3.13 µg/mL | 6.25 µg/mL | 25.0 µg/mL | >100 µg/mL | 3.13 µg/mL | >100 µg/mL | 25.0 µg/mL | 50.0 µg/mL | 100 µg/mL | 1.56 µg/mL
